The target in experiment [1] is T1, IKZF2 (Homo sapiens (Human), UniProt Q96SW2+Q9UKS7). The experiment in a line: In vitro IKZF2 FACS Assay in Jurkat cells. Format: cell-based. The following applies: 24 hrs; for DC50: half maximal degradation concentration; for Dmax: maximal degradation percentage. The protocol: In vitro IKZF2 FACS Assay
DC50, A: <1 nM; B: 1-10 nM; C: 10-100 nM; D: 100-1000 nM; E: >1000 nM. Dmax, A: >80%; B: 60-80%; C: 40-60%; D: 20-40%; E: <20%.

Another experiment deals with IKZF1 (Homo sapiens (Human), UniProt Q13422+Q96SW2). Kind of experiment: In vitro IKZF1 HiBit Assay (HEK293T Flp-in-HiBiT-IKZF1 stable cell line). Format: cell-based. The settings on record: HEK293T Flp-in-HiBiT-IKZF1 stable cell line, 6 hrs incubation; for DC50: read-out: IKZF1 HiBit DC50; for Dmax: HEK-293T, read-out: IKZF1 HiBit Dmax (%). A digest of the protocol:
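Degradation was measured as loss of luminescence from the HiBiT-IKZF1 tag after 6 h compound treatment, with 0.1% final DMSO, in stable HEK293T Flp-in cells. Values were normalized to DMSO, giving the 50% degradation concentration and the maximal degradation range.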
For orientation: The HiBiT peptide binds its large partner to form an active luciferase.

Experiment [2] deals with T1, IKZF2. The experiment in a line: In vitro IKZF2 HiBit Assay (HEK293T Flp-in-HiBiT cells). Format: cell-based. The settings on record: HEK293T Flp-in-HiBiT cells, 6 hrs incubation; for DC50: read-out: IKZF2 HiBit DC50; for Dmax: HEK-293T, read-out: IKZF2 HiBit Dmax (%). The method, boiled down: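 Remaining tagged Helios was read as lytic HiBiT/LgBiT luminescence normalized to DMSO, yielding binned DC50 and Dmax values. Treatment ran 6 h, with compounds at 11 three-fold doses diluted from 1 mM and 0.1% final DMSO. The cells were HEK293T Flp-in with CRISPR knock-in of HiBiT at the IKZF2 N-terminus.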

For another experiment, the target named is CRBN/DDB1 (Homo sapiens (Human), UniProt Q96SW2). Kind of experiment: IC50 measurements for binding to CRBN/DDB1 (HTRF). The following applies: His tagged CRBN+DDB, Cy5-labeled Thalidomide probe, one hour. The method, boiled down: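 Serially diluted compounds compete with a Cy5-labeled thalidomide tracer (60 nM) for His-tagged CRBN-DDB1 (2 nM), detected via anti-6His Tb cryptate (0.4 nM); buffer HEPES pH 7.5 with TCEP, Brij-35, NaCl, BSA. One-hour room-temperature incubation, HTRF signal read, IC50 by four-parameter curve.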
Sequence of CRBN/DDB1 (Q96SW2 whole entry, species assumed): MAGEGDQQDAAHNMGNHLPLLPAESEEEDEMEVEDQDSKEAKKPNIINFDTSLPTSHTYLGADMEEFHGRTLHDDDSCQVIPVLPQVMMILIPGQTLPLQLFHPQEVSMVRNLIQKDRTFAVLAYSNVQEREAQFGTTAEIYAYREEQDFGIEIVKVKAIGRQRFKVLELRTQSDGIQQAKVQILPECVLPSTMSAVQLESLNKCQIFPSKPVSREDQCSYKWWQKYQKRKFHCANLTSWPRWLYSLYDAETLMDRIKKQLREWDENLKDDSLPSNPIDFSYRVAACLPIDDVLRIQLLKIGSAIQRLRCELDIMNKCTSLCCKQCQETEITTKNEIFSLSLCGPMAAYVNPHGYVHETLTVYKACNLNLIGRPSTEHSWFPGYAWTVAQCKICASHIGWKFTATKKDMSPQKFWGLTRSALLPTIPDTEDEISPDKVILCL
Sequence of CRBN/DDB1 (Q16531 whole entry partner, species assumed): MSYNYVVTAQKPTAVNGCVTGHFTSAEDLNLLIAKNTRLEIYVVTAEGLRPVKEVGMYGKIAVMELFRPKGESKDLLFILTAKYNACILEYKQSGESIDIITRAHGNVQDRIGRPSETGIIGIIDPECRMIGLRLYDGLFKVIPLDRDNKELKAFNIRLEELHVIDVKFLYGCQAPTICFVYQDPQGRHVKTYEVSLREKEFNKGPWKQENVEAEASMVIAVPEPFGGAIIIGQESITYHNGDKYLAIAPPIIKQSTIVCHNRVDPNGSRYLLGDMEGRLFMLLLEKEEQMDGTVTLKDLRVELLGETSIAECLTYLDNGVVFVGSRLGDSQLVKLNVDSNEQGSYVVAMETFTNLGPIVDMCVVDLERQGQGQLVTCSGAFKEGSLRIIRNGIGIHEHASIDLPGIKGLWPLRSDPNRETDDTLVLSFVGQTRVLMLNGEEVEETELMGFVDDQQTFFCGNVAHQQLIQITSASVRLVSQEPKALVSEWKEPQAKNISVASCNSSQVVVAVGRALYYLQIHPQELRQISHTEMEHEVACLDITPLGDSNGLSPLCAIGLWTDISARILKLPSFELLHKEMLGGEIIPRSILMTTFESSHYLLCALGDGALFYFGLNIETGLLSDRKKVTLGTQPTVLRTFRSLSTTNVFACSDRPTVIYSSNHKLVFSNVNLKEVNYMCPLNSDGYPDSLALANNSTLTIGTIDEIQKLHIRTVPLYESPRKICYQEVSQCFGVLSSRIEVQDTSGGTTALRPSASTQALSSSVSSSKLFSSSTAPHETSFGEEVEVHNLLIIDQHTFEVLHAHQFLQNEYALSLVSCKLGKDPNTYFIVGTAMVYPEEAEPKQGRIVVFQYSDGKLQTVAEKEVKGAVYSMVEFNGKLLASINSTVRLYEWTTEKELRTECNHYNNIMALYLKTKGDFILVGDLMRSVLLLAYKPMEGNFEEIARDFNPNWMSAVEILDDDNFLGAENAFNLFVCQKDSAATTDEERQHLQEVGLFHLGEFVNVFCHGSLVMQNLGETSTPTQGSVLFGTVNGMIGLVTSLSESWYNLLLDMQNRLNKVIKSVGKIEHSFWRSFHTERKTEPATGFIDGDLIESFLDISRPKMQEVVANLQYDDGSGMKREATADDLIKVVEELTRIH

T1 sequence (Q9UKS7 whole entry): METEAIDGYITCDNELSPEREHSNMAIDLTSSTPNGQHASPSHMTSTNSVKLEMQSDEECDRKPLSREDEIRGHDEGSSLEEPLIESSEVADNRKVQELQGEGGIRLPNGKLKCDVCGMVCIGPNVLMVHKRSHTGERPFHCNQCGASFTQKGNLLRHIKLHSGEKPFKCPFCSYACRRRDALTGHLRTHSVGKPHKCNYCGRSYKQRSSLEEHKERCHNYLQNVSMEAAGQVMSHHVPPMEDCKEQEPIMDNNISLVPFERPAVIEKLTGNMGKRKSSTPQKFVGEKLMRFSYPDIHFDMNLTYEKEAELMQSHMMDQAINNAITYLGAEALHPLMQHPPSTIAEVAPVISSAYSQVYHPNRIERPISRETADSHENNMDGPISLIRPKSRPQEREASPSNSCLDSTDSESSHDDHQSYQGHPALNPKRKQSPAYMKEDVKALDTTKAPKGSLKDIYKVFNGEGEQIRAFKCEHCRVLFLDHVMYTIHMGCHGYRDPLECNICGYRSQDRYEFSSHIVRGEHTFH
T1 sequence (Q96SW2 whole entry): as the sequence (Q96SW2 whole entry, species assumed) above
T1 sequence (Q16531 2-1140 partner): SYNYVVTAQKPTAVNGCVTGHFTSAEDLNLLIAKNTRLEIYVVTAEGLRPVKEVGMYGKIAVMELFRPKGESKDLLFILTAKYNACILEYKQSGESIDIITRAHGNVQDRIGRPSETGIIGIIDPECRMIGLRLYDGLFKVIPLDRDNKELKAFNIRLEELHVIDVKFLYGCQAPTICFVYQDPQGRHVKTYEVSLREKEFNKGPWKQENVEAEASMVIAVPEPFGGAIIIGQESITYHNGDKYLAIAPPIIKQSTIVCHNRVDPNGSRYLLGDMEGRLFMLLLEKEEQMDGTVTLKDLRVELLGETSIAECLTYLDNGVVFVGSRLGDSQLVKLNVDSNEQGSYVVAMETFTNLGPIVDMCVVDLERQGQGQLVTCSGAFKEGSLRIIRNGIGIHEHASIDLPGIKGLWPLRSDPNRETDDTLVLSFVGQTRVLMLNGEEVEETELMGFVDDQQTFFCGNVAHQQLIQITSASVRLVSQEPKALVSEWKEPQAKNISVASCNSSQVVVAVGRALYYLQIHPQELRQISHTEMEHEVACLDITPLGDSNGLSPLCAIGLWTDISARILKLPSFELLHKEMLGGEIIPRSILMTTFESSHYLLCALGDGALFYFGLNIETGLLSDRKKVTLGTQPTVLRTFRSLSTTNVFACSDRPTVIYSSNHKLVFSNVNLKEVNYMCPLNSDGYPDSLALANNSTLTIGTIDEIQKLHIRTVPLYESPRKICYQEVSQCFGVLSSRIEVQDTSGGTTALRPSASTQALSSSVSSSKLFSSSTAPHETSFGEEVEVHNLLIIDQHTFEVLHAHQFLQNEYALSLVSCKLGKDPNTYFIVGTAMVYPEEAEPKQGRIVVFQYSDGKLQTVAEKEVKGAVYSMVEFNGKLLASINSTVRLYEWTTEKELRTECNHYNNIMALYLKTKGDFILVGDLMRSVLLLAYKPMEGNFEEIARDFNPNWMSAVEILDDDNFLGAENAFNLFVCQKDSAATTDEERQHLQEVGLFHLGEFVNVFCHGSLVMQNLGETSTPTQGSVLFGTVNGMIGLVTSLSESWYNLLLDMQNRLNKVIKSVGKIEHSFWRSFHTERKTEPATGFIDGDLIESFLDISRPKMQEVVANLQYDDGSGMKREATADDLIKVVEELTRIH
Sequence of IKZF1 (Q13422 whole entry): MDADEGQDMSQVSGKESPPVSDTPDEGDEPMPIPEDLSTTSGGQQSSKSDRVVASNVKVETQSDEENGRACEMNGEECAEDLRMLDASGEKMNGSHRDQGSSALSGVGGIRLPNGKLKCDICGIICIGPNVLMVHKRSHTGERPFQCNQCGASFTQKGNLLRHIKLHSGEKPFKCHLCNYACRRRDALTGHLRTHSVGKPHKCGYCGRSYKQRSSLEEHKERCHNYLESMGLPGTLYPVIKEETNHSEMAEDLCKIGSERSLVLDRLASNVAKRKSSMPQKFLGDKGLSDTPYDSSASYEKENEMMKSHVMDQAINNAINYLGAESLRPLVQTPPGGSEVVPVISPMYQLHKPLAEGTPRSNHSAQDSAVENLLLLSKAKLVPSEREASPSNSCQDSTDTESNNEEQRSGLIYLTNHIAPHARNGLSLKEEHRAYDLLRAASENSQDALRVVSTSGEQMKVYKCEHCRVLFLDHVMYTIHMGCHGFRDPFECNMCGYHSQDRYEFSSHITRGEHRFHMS
Sequence of IKZF1 (Q96SW2 whole entry): as the sequence (Q96SW2 whole entry, species assumed) above
Sequence of IKZF1 (Q16531 2-1140 partner): as the sequence (Q16531 2-1140 partner) above

Usually IC50 stands for the concentration at which inhibition is half-maximal. Read a low IC50 as greater potency in that assay. Consider `O=C1CCC(N2Cc3cc(-c4cc(CN5CCC(F)CC5)c5ccn(C6COC6)c5n4)ccc3C2=O)C(=O)N1` (stereo not drawn) [Example 187, 3-(5-(4-((4-fluoropiperidin-1-yl)methyl)-1-(oxetan-3-yl)-1H-pyrrolo[2,3-b]pyridin-6-yl)-1-oxoisoindolin-2-yl) piperidine-2,6-dione], for which the DC50 at IKZF2 [1] is 1 to 10 nM; on IKZF1, over 10000 nM; at IKZF2 [2], 1 to 10 nM. The Dmax was over 80% on IKZF2 [1], under 20% on IKZF1 and over 80% at IKZF2 [2]. At CRBN/DDB1, this compound gave a concentration for half-maximal inhibition (IC50) of 100 to 500 nM.
On to `O=C1CCC(N2Cc3cc(-c4cc(CN5CC(F)C5)c5ccn(C6COC6)c5n4)ccc3C2=O)C(=O)N1` (stereo not drawn) [Example 161, 3-(5-(4-((3-fluoroazetidin-1-yl)methyl)-1-(oxetan-3-yl)-1H-pyrrolo[2,3-b]pyridin-6-yl)-1-oxoisoindolin-2-yl) piperidine-2,6-dione], for which the DC50 at IKZF2 [1] was 10 to 100 nM; on IKZF1, over 10000 nM; on IKZF2 [2], 1 to 10 nM. Moreover, the results for the Dmax on IKZF2 [1], on IKZF1 and on IKZF2 [2] were 60 to 80%, under 20% and 60 to 80%, respectively. Also, the IC50 at CRBN/DDB1 lay within 100 to 500 nM.
For `CC1CCN(Cc2cc(-c3ccc4c(c3)CN(C3CCC(=O)NC3=O)C4=O)n3cncc3c2)C1` (stereo not drawn) [Example 6, 3-(5-(7-((3-methylpyrrolidin-1-yl)methyl)imidazo[1,5-a]pyridin-5-yl)-1-oxoisoindolin-2-yl) piperidine-2,6-dione], the values for the DC50 on IKZF2 [1], on IKZF1 and on IKZF2 [2] were 10 to 100 nM, over 10000 nM and 10 to 100 nM, respectively. The Dmax on IKZF2 [1] was 60 to 80%; at IKZF1, under 20%; at IKZF2 [2], 60 to 80%. The IC50 at CRBN/DDB1 lay in the range of 100 to 500 nM.
Consider `Nc1n[nH]c2c(CN3CCC4(CC3)COC4)cc(-c3ccc4c(c3)CN(C3CCC(=O)NC3=O)C4=O)nc12` (stereo not drawn) [Example 216, 3-(5-(7-((2-oxa-7-azaspiro[3.5]nonan-7-yl)methyl)-3-amino-1H-pyrazolo[4,3-b]pyridin-5-yl)-1-oxoisoindolin-2-yl) piperidine-2,6-dione], for which the DC50 at IKZF2 [1] lay within 100 to 1000 nM; on IKZF1, 100 to 1000 nM; at IKZF2 [2] it was 10 to 100 nM. Also, the Dmax lay within 60 to 80% at IKZF2 [1], 20 to 40% at IKZF1 and 60 to 80% on IKZF2 [2]. Moreover, the IC50 on CRBN/DDB1 lay within 1000 to 5000 nM.
Regarding `O=C1CCC(N2Cc3cc(-c4cc(CN5CCCC5)c5ncn(C6COC6)c5n4)ccc3C2=O)C(=O)N1` (stereo not drawn) [Example 211, 3-(5-(3-(oxetan-3-yl)-7-(pyrrolidin-1-ylmethyl)-3H-imidazo[4,5-b]pyridin-5-yl)-1-oxoisoindolin-2-yl) piperidine-2,6-dione], the results for the DC50 at IKZF2 [1], at IKZF1 and at IKZF2 [2] were 10 to 100 nM, over 10000 nM and 10 to 100 nM, respectively. In addition, the Dmax on IKZF2 [1] is 60 to 80%; at IKZF1, under 20%; at IKZF2 [2] it was 60 to 80%. The same compound yielded an IC50 at CRBN/DDB1 of 500 to 1000 nM.
In the case of `Cn1ccc2c(CN3CCCC3)c(Cl)c(-c3ccc4c(c3)CN(C3CCC(=O)NC3=O)C4=O)nc21` (stereo not drawn) [Example 229, 3-(5-(5-chloro-1-methyl-4-(pyrrolidin-1-ylmethyl)-1H-pyrrolo[2,3-b]pyridin-6-yl)-1-oxoisoindolin-2-yl) piperidine-2,6-dione], the DC50 on IKZF2 [1] was 1 to 10 nM; at IKZF1, over 10000 nM; at IKZF2 [2], 1 to 10 nM. Further, the Dmax at IKZF2 [1] is 60 to 80%; on IKZF1 it was under 20%; on IKZF2 [2], 60 to 80%. Further, the IC50 on CRBN/DDB1 was in the range of 100 to 500 nM.
Turning to `O=C1CCC(N2Cc3cc(-c4cc(CN5CCC6(CC5)CC6)cc5cncn45)ccc3C2=O)C(=O)N1` (stereo not drawn) [Example 8, 3-(5-(7-((6-azaspiro[2.5]octan-6-yl)methyl)imidazo[1,5-a]pyridin-5-yl)-1-oxoisoindolin-2-yl) piperidine-2,6-dione], the DC50 at IKZF2 [1] is 10 to 100 nM; on IKZF1, over 10000 nM; on IKZF2 [2], 10 to 100 nM. In addition, the Dmax on IKZF2 [1] is 40 to 60%; at IKZF1, under 20%; at IKZF2 [2], 40 to 60%. At CRBN/DDB1, this compound had an IC50 of 1000 to 5000 nM.
`CC(C)Nc1n[nH]c2c(CN3CCCC3)cc(-c3ccc4c(c3)CN(C3CCC(=O)NC3=O)C4=O)nc12` (stereo not drawn) [Example 193, 3-(5-(3-(isopropylamino)-7-(pyrrolidin-1-ylmethyl)-1H-pyrazolo[4,3-b]pyridin-5-yl)-1-oxoisoindolin-2-yl) piperidine-2,6-dione]: the DC50 at IKZF2 [1] was 1 to 10 nM; on IKZF1, 10 to 100 nM; at IKZF2 [2], 1 to 10 nM. Further, the Dmax on IKZF2 [1] was 40 to 60%; at IKZF1, 20 to 40%; at IKZF2 [2], over 80%. Also, the IC50 on CRBN/DDB1 was 1000 to 5000 nM.
With `O=C1CCC(N2Cc3cc(-c4ncc5cc(CN6CCCC6)ccn45)ccc3C2=O)C(=O)N1` (stereo not drawn) [Example 52, 3-(1-oxo-5-(7-(pyrrolidin-1-ylmethyl)imidazo[1,5-a]pyridin-3-yl)isoindolin-2-yl) piperidine-2,6-dione], the DC50 was 10 to 100 nM at IKZF2 [1], over 10000 nM at IKZF1 and 1 to 10 nM on IKZF2 [2]. The Dmax on IKZF2 [1] is 40 to 60%; on IKZF1, under 20%; on IKZF2 [2], 60 to 80%. Further, on CRBN/DDB1, the IC50 is 500 to 1000 nM.
For `O=C1CCC(N2Cc3cc(-c4cc(CN5CCC(CO)CC5)c5ccn(C6COC6)c5n4)ccc3C2=O)C(=O)N1` (stereo not drawn) [Example 163, 3-(5-(4-((4-(hydroxymethyl)piperidin-1-yl)methyl)-1-(oxetan-3-yl)-1H-pyrrolo[2,3-b]pyridin-6-yl)-1-oxoisoindolin-2-yl) piperidine-2,6-dione], the results for the DC50 on IKZF2 [1], on IKZF1 and at IKZF2 [2] were 1 to 10 nM, 100 to 1000 nM and 1 to 10 nM, respectively. Also, the Dmax on IKZF2 [1] is over 80%; at IKZF1, 20 to 40%; at IKZF2 [2], 60 to 80%. Besides, the IC50 on CRBN/DDB1 lay in the range of 100 to 500 nM.
With `Nc1n[nH]c2c(CN3CCC(O)CC3)cc(-c3ccc4c(c3)CN(C3CCC(=O)NC3=O)C4=O)nc12` (stereo not drawn) [Example 205, 3-(5-(3-amino-7-((4-hydroxypiperidin-1-yl)methyl)-1H-pyrazolo[4,3-b]pyridin-5-yl)-1-oxoisoindolin-2-yl) piperidine-2,6-dione], the results for the DC50 at IKZF2 [1], on IKZF1 and on IKZF2 [2] were 100 to 1000 nM, 1000 to 10000 nM and 10 to 100 nM, respectively. In addition, the Dmax on IKZF2 [1] lay in the range of 60 to 80%; on IKZF1 it was 20 to 40%; at IKZF2 [2] it was 60 to 80%. The same compound yielded an IC50 at CRBN/DDB1 of 500 to 1000 nM.
As to `O=C1CCC(N2Cc3cc(-c4cc(CN5CCC(F)CC5)c5cc[nH]c5n4)ccc3C2=O)C(=O)N1` (stereo not drawn) [Example 116, 3-(5-(4-((4-fluoropiperidin-1-yl)methyl)-1H-pyrrolo[2,3-b]pyridin-6-yl)-1-oxoisoindolin-2-yl) piperidine-2,6-dione], the DC50 at IKZF2 [1] was 1 to 10 nM; at IKZF1, 1 to 10 nM; at IKZF2 [2] it was under 1 nM. For the same compound, the Dmax on IKZF2 [1] is over 80%; at IKZF1, 20 to 40%; on IKZF2 [2] it was over 80%. For the same compound, on CRBN/DDB1, the concentration for half-maximal inhibition (IC50) is 100 to 500 nM.
On to `O=C1CCC(N2Cc3cc(-c4cc(CN5CCC(O)CC5)c5ccn(C6COC6)c5n4)ccc3C2=O)C(=O)N1` (stereo not drawn) [Example 162, 3-(5-(4-((4-hydroxypiperidin-1-yl)methyl)-1-(oxetan-3-yl)-1H-pyrrolo[2,3-b]pyridin-6-yl)-1-oxoisoindolin-2-yl) piperidine-2,6-dione], for which the values for the DC50 at IKZF2 [1], at IKZF1 and on IKZF2 [2] were 10 to 100 nM, 100 to 1000 nM and 10 to 100 nM, respectively. For the same compound, the Dmax at IKZF2 [1] is over 80%; on IKZF1 it was 20 to 40%; on IKZF2 [2], 60 to 80%. Besides, the IC50 on CRBN/DDB1 lay in the range of 100 to 500 nM.
Regarding `Cn1ccc2c(CN3CCCC3)cc(-c3ccc4c(c3)CN(C3CCC(=O)NC3=O)C4=O)nc21` (stereo not drawn) [Example 55, 3-(5-(1-methyl-4-(pyrrolidin-1-ylmethyl)-1H-pyrrolo[2,3-b]pyridin-6-yl)-1-oxoisoindolin-2-yl) piperidine-2,6-dione], the DC50 at IKZF2 [1] is under 1 nM; at IKZF1 it was over 10000 nM; at IKZF2 [2], under 1 nM. For the same compound, the Dmax at IKZF2 [1] is over 80%; at IKZF1 it was 20 to 40%; at IKZF2 [2], over 80%. The compound also gave an IC50 at CRBN/DDB1 of 100 to 500 nM.
In the case of `O=C1CCC(N2Cc3cc(-c4cc(CN5CCCC5)c5ncn(C6CCC6)c5n4)ccc3C2=O)C(=O)N1` (stereo not drawn) [Example 209, 3-(5-(3-cyclobutyl-7-(pyrrolidin-1-ylmethyl)-3H-imidazo[4,5-b]pyridin-5-yl)-1-oxoisoindolin-2-yl) piperidine-2,6-dione], the DC50 is 10 to 100 nM at IKZF2 [1], over 10000 nM at IKZF1 and 1 to 10 nM at IKZF2 [2]. In addition, the Dmax on IKZF2 [1] was over 80%; on IKZF1, under 20%; at IKZF2 [2], over 80%. At CRBN/DDB1, this compound had an IC50 of 1000 to 5000 nM.
